Experiment in all cases: Cerep enzyme and cell-based assays
What all share (type): biochemical

The subject of experiment [1] is ATPase (Na+/K+). Particulars: 5 µM.
The target in experiment [2] is T1, sirtuin 1 (h) (inhibitor effect) (Homo sapiens, UniProt Q96EB6).
T1 construct: Eurofins Pharma Discovery Services (CEREP diversity panel, outsourced assay)
Particulars: read-out: % Inhibition of Control Values.

The target in experiment [3] is T2, MAO-A (h) (Homo sapiens, UniProt P21397).
T2 construct: Eurofins Pharma Discovery Services (CEREP diversity panel, outsourced assay)
T2 sequence (P21397 whole entry): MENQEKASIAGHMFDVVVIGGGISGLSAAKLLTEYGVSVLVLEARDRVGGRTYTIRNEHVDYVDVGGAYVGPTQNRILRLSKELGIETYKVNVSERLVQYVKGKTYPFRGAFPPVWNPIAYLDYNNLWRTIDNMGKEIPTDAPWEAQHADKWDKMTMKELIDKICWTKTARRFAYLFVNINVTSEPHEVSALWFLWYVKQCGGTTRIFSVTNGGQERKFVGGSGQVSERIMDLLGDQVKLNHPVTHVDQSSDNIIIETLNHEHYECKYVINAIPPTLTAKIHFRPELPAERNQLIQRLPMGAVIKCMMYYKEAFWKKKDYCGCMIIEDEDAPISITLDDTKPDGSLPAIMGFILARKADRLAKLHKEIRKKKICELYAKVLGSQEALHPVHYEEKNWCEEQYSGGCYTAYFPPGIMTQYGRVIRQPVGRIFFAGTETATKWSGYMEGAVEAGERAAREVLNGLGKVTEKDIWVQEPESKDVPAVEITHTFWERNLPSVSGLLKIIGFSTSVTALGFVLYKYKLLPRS
Particulars: read-out: % Inhibition of Control Values.

Structures are written as SMILES.

Two compounds from PMC4843002, “Identification of pyrazolopyridazinones as PDEδ inhibitors” (Nature Communications, 2016) can be followed below.

T1 sequence (Q96EB6 whole entry): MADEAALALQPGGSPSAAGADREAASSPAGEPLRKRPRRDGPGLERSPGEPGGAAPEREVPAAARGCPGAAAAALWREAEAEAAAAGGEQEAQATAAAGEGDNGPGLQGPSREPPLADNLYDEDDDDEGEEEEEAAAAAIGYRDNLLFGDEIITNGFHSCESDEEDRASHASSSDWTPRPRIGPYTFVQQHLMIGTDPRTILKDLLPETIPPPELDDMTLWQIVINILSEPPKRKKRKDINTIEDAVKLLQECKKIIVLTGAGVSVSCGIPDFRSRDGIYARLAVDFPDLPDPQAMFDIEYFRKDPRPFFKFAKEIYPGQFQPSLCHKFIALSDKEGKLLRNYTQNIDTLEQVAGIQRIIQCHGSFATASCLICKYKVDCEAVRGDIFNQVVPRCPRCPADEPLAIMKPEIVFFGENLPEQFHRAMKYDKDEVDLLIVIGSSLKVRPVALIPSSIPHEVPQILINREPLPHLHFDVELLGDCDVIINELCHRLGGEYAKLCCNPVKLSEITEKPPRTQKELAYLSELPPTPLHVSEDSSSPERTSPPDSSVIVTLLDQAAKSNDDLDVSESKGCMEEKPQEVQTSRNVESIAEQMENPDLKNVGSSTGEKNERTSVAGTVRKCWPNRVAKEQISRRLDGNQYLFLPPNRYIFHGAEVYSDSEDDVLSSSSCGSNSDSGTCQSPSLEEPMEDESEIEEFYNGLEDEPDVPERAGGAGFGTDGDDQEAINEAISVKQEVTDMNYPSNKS

Consider `Cc1ccc(-n2nc3c(=O)n(CCCC(=O)NCC(C)c4ccccc4)nc(C)c3c2C)cc1` (stereo not drawn) [2k], for which the “% Inhibition of Control Values” in experiment [1] is listed as 7%. One may read the inhibition as the drop in the measured response relative to a control, in per cent. As for `c1ccc(Cn2c(-c3ccc(OC[C@H](C4CCNCC4)n4c(-c5ccccc5)nc5ccccc54)cc3)nc3ccccc32)cc1` [Deltarasin, reference compound], the values for the inhibition at 5 µM in experiment [2] and in experiment [3] were 4% and 1%, respectively.
